From ChEMBL document CHEMBL3797052 (Eur J Med Chem, 2016)

tested on: not listed separately; assay: Antiproliferative activity against human Hs 578T cells assessed as cell growth at 10^-6 M after 48 hrs by sulforhodamine B assay; format: functional; conditions: read-out: Activity

| SMILES | growth at 1 µM [%] |
| --- | --- |
| CNC(=O)c1cc(Oc2ccc3nc(NC(=O)Nc4ccc(Cl)c(C(F)(F)F)c4)sc3c2)ccn1 | 65 |

tested on: NCI-H522; assay: Antiproliferative activity against human NCI-H522 cells assessed as cell growth at 10^-8 M after 48 hrs by sulforhodamine B assay; format: functional; conditions: NCI-H522, 48 h, read-out: Activity

| SMILES | growth at 0.01 µM [%] |
| --- | --- |
| CNC(=O)c1cc(Oc2ccc3nc(NC(=O)Nc4ccc(Cl)c(C(F)(F)F)c4)sc3c2)ccn1 | 98 |

tested on: T47D; assay: Antiproliferative activity against human T47D cells assessed as cell growth at 10^-7 M after 48 hrs by sulforhodamine B assay; format: functional; conditions: read-out: Activity

| SMILES | growth at 0.1 µM [%] |
| --- | --- |
| CNC(=O)c1cc(Oc2ccc3nc(NC(=O)Nc4ccc(Cl)c(C(F)(F)F)c4)sc3c2)ccn1 | 92 |

tested on: not listed separately; assay: Antiproliferative activity against human TK10 cells assessed as cell growth at 10^-6 M after 48 hrs by sulforhodamine B assay; format: functional; conditions: TK-10, 48 h, read-out: Activity

| SMILES | growth at 1 µM [%] |
| --- | --- |
| CNC(=O)c1cc(Oc2ccc3nc(NC(=O)Nc4ccc(Cl)c(C(F)(F)F)c4)sc3c2)ccn1 | 109 |

tested on: not listed separately; assay: Antiproliferative activity against human SF539 cells assessed as growth inhibition after 48 hrs by sulforhodamine B assay; format: functional; conditions: SF-539, 48 h

| SMILES | GI50 [nM] | TGI [nM] |
| --- | --- | --- |
| CNC(=O)c1cc(Oc2ccc3nc(NC(=O)Nc4ccc(Cl)c(C(F)(F)F)c4)sc3c2)ccn1 | 1780 | 3900 |

tested on: SK-MEL-2; assay: Antiproliferative activity against human SK-MEL-2 cells assessed as cell growth at 10^-6 M after 48 hrs by sulforhodamine B assay; format: functional; conditions: SK-MEL-2, 48 h, read-out: Activity

| SMILES | growth at 1 µM [%] |
| --- | --- |
| CNC(=O)c1cc(Oc2ccc3nc(NC(=O)Nc4ccc(Cl)c(C(F)(F)F)c4)sc3c2)ccn1 | 89 |

tested on: Malme-3M; assay: Antiproliferative activity against human MALME-3M cells assessed as cell growth at 10^-6 M after 48 hrs by sulforhodamine B assay; format: functional; conditions: read-out: Activity

| SMILES | growth at 1 µM [%] |
| --- | --- |
| CNC(=O)c1cc(Oc2ccc3nc(NC(=O)Nc4ccc(Cl)c(C(F)(F)F)c4)sc3c2)ccn1 | 79 |

tested on: NCI-H322M; assay: Antiproliferative activity against human NCI-H322M cells assessed as cell growth at 10^-7 M after 48 hrs by sulforhodamine B assay; format: functional; conditions: read-out: Activity

| SMILES | growth at 0.1 µM [%] |
| --- | --- |
| CNC(=O)c1cc(Oc2ccc3nc(NC(=O)Nc4ccc(Cl)c(C(F)(F)F)c4)sc3c2)ccn1 | 103 |

tested on: not listed separately; assay: Antiproliferative activity against human OVCAR8 cells assessed as cell growth at 10^-6 M after 48 hrs by sulforhodamine B assay; format: functional; conditions: OVCAR-8, 48 h, read-out: Activity

| SMILES | growth at 1 µM [%] |
| --- | --- |
| CNC(=O)c1cc(Oc2ccc3nc(NC(=O)Nc4ccc(Cl)c(C(F)(F)F)c4)sc3c2)ccn1 | 103 |

tested on: not listed separately; assay: Antiproliferative activity against human OVCAR5 cells assessed as cell growth at 10^-4 M after 48 hrs by sulforhodamine B assay; format: functional; conditions: OVCAR-5, 48 h, read-out: Activity

| SMILES | growth at 100 µM [%] |
| --- | --- |
| CNC(=O)c1cc(Oc2ccc3nc(NC(=O)Nc4ccc(Cl)c(C(F)(F)F)c4)sc3c2)ccn1 | -24 |

tested on: SK-MEL-5; assay: Antiproliferative activity against human SK-MEL-5 cells assessed as cell growth at 10^-6 M after 48 hrs by sulforhodamine B assay; format: functional; conditions: SK-MEL-5, 48 h, read-out: Activity

| SMILES | growth at 1 µM [%] |
| --- | --- |
| CNC(=O)c1cc(Oc2ccc3nc(NC(=O)Nc4ccc(Cl)c(C(F)(F)F)c4)sc3c2)ccn1 | 87 |

tested on: SK-MEL-28; assay: Antiproliferative activity against human SK-MEL-28 cells assessed as cell growth at 10^-4 M after 48 hrs by sulforhodamine B assay; format: functional; conditions: SK-MEL-28, 48 h, read-out: Activity

| SMILES | growth at 100 µM [%] |
| --- | --- |
| CNC(=O)c1cc(Oc2ccc3nc(NC(=O)Nc4ccc(Cl)c(C(F)(F)F)c4)sc3c2)ccn1 | 38 |

tested on: not listed separately; assay: Antiproliferative activity against human BT549 cells assessed as cell growth at 10^-8 M after 48 hrs by sulforhodamine B assay; format: functional; conditions: BT-549, 48 h, read-out: Activity

| SMILES | growth at 0.01 µM [%] |
| --- | --- |
| CNC(=O)c1cc(Oc2ccc3nc(NC(=O)Nc4ccc(Cl)c(C(F)(F)F)c4)sc3c2)ccn1 | 95 |

tested on: NCI-H23; assay: Antiproliferative activity against human NCI-H23 cells assessed as cell growth at 10^-4 M after 48 hrs by sulforhodamine B assay; format: functional; conditions: NCI-H23, 48 h, read-out: Activity

| SMILES | growth at 100 µM [%] |
| --- | --- |
| CNC(=O)c1cc(Oc2ccc3nc(NC(=O)Nc4ccc(Cl)c(C(F)(F)F)c4)sc3c2)ccn1 | -40 |

tested on: not listed separately; assay: Antiproliferative activity against human COLO205 cells assessed as cell growth at 10^-8 M after 48 hrs by sulforhodamine B assay; format: functional; conditions: COLO 205, 48 h, read-out: Activity

| SMILES | growth at 0.01 µM [%] |
| --- | --- |
| CNC(=O)c1cc(Oc2ccc3nc(NC(=O)Nc4ccc(Cl)c(C(F)(F)F)c4)sc3c2)ccn1 | 98 |

tested on: A498; assay: Antiproliferative activity against human A498 cells assessed as cell growth at 10^-4 M after 48 hrs by sulforhodamine B assay; format: functional; conditions: A498, 48 h, read-out: Activity

| SMILES | growth at 100 µM [%] |
| --- | --- |
| CNC(=O)c1cc(Oc2ccc3nc(NC(=O)Nc4ccc(Cl)c(C(F)(F)F)c4)sc3c2)ccn1 | -40 |

tested on: not listed separately; assay: Antiproliferative activity against human SNB19 cells assessed as cell growth at 10^-6 M after 48 hrs by sulforhodamine B assay; format: functional; conditions: SNB-19, 48 h, read-out: Activity

| SMILES | growth at 1 µM [%] |
| --- | --- |
| CNC(=O)c1cc(Oc2ccc3nc(NC(=O)Nc4ccc(Cl)c(C(F)(F)F)c4)sc3c2)ccn1 | 85 |

tested on: SR; assay: Antiproliferative activity against human SR cells assessed as cell growth at 10^-4 M after 48 hrs by sulforhodamine B assay; format: functional; conditions: read-out: Activity

| SMILES | growth at 100 µM [%] |
| --- | --- |
| CNC(=O)c1cc(Oc2ccc3nc(NC(=O)Nc4ccc(Cl)c(C(F)(F)F)c4)sc3c2)ccn1 | -11 |

tested on: not listed separately; assay: Antiproliferative activity against human HOP92 cells assessed as cell growth at 10^-8 M after 48 hrs by sulforhodamine B assay; format: functional; conditions: HOP-92, 48 h, read-out: Activity

| SMILES | growth at 0.01 µM [%] |
| --- | --- |
| CNC(=O)c1cc(Oc2ccc3nc(NC(=O)Nc4ccc(Cl)c(C(F)(F)F)c4)sc3c2)ccn1 | 85 |

tested on: SK-MEL-5; assay: Antiproliferative activity against human SK-MEL-5 cells assessed as cell growth at 10^-4 M after 48 hrs by sulforhodamine B assay; format: functional; conditions: SK-MEL-5, 48 h, read-out: Activity

| SMILES | growth at 100 µM [%] |
| --- | --- |
| CNC(=O)c1cc(Oc2ccc3nc(NC(=O)Nc4ccc(Cl)c(C(F)(F)F)c4)sc3c2)ccn1 | 57 |
